# Legend:
# [1] = target: Eukaryotic translation initiation factor 2-alpha kinase 1 (Homo sapiens) (UniProt Q9BQI3); conditions: Compound concentration 100.0 nM
# [2] = target: Phosphatidylinositol 4-phosphate 3-kinase C2 domain-containing subunit beta (Homo sapiens) (UniProt O00750); conditions: Compound concentration 100.0 nM
# [3] = target: 5-hydroxytryptamine receptor 2A (Homo sapiens) (UniProt P28223); conditions: Compound concentration 10.0 uM
# [4] = target: Vascular endothelial growth factor receptor 3 (Homo sapiens) (UniProt P35916); conditions: Compound concentration 100.0 nM
# [5] = target: Serine/threonine-protein kinase pim-2 (Homo sapiens) (UniProt Q9P1W9); conditions: Compound concentration 100.0 nM
# [6] = target: cGMP-dependent protein kinase 2 (Homo sapiens) (UniProt Q13237); conditions: Compound concentration 100.0 nM
# [7] = target: 5-hydroxytryptamine receptor 2B (Homo sapiens) (UniProt P41595); conditions: Compound concentration 10.0 uM
# [8] = system: Proto-oncogene tyrosine-protein kinase receptor Ret (Homo sapiens), P07949 [V804L]; conditions: Compound concentration 100.0 nM
# [9] = target: Insulin receptor (Homo sapiens) (UniProt P06213); conditions: Compound concentration 100.0 nM
# [10] = system: eIF-2-alpha kinase GCN2 (Homo sapiens), Q9P2K8 [S808G]; conditions: Compound concentration 100.0 nM
# [11] = target: Serine/threonine-protein kinase PknB (Mycobacterium tuberculosis) (UniProt P9WI81); conditions: Compound concentration 100.0 nM
# [12] = target: Proto-oncogene tyrosine-protein kinase receptor Ret (Homo sapiens) (UniProt P07949); conditions: Compound concentration 100.0 nM
# [13] = target: Mitogen-activated protein kinase kinase kinase 9 (Homo sapiens) (UniProt P80192); conditions: Compound concentration 100.0 nM
# [14] = target: Serine/threonine-protein kinase 3 (Homo sapiens) (UniProt Q13188); conditions: Compound concentration 100.0 nM
# [15] = target: Serine/threonine-protein kinase Nek5 (Homo sapiens) (UniProt Q6P3R8); conditions: Compound concentration 100.0 nM
# [16] = target: Phosphatidylinositol 3-kinase C2 domain-containing subunit gamma (Homo sapiens) (UniProt O75747); conditions: Compound concentration 100.0 nM
# [17] = target: Maternal embryonic leucine zipper kinase (Homo sapiens) (UniProt Q14680); conditions: Compound concentration 100.0 nM
# [18] = target: NUAK family SNF1-like kinase 1 (Homo sapiens) (UniProt O60285); conditions: Compound concentration 100.0 nM
# [19] = target: LIM domain kinase 2 (Homo sapiens) (UniProt P53671); conditions: Compound concentration 100.0 nM
# [20] = target: Serine/threonine-protein kinase ULK3 (Homo sapiens) (UniProt Q6PHR2); conditions: Compound concentration 100.0 nM
# [21] = target: NT-3 growth factor receptor (Homo sapiens) (UniProt Q16288); conditions: Compound concentration 100.0 nM
# [22] = target: Serine/threonine-protein kinase MRCK gamma (Homo sapiens) (UniProt Q6DT37); conditions: Compound concentration 100.0 nM
# [23] = target: Serine/threonine-protein kinase DCLK3 (Homo sapiens) (UniProt Q9C098); conditions: Compound concentration 100.0 nM
# [24] = target: T1, Aurora kinase A (Homo sapiens) (UniProt O14965); conditions: Compound concentration 100.0 nM
# T1 sequence (whole entry): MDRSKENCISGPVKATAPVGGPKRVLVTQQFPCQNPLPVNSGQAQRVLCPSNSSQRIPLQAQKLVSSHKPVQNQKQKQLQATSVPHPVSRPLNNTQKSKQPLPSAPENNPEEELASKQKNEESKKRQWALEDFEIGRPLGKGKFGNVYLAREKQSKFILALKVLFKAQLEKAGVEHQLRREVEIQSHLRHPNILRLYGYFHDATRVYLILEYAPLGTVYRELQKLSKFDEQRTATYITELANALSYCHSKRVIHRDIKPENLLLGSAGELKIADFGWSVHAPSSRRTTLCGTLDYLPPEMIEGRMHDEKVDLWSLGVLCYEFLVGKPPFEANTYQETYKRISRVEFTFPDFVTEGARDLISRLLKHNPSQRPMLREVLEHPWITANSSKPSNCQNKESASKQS
# [25] = target: Serine/threonine-protein kinase 33 (Homo sapiens) (UniProt Q9BYT3); conditions: Compound concentration 100.0 nM
# [26] = target: Serine/threonine-protein kinase N1 (Homo sapiens) (UniProt Q16512); conditions: Compound concentration 100.0 nM
# [27] = target: Histamine H1 receptor (Homo sapiens) (UniProt P35367); conditions: Compound concentration 10.0 uM
# [28] = target: T2, Interleukin-1 receptor-associated kinase 4 (Homo sapiens) (UniProt Q9NWZ3); conditions: Compound concentration 100.0 nM
# T2 sequence (whole entry): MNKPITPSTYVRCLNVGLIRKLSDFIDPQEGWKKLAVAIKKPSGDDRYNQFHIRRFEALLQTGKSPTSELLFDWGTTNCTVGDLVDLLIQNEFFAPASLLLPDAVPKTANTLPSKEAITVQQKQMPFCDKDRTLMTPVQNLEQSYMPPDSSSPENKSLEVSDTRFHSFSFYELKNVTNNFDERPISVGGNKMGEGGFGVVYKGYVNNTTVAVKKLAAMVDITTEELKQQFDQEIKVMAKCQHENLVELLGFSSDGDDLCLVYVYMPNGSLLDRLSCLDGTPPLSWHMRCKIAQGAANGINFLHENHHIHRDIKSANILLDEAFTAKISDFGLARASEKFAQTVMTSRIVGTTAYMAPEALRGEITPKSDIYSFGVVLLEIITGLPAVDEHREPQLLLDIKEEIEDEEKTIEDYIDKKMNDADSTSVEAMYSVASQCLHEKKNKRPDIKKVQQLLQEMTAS
# [29] = target: Serine/threonine-protein kinase WNK3 (Homo sapiens) (UniProt Q9BYP7); conditions: Compound concentration 100.0 nM
# [30] = target: Calcium/calmodulin-dependent protein kinase type IV (Homo sapiens) (UniProt Q16566); conditions: Compound concentration 100.0 nM
# [31] = target: Glycogen synthase kinase-3 alpha (Homo sapiens) (UniProt P49840); conditions: Compound concentration 100.0 nM
# [32] = target: Proto-oncogene tyrosine-protein kinase Src (Homo sapiens) (UniProt P12931); conditions: Compound concentration 100.0 nM
# [33] = target: Tyrosine-protein kinase Lyn (Homo sapiens) (UniProt P07948); conditions: Compound concentration 100.0 nM
# Serine/threonine-protein kinase PknB (Mycobacterium tuberculosis), sequence (P9WI81 whole entry): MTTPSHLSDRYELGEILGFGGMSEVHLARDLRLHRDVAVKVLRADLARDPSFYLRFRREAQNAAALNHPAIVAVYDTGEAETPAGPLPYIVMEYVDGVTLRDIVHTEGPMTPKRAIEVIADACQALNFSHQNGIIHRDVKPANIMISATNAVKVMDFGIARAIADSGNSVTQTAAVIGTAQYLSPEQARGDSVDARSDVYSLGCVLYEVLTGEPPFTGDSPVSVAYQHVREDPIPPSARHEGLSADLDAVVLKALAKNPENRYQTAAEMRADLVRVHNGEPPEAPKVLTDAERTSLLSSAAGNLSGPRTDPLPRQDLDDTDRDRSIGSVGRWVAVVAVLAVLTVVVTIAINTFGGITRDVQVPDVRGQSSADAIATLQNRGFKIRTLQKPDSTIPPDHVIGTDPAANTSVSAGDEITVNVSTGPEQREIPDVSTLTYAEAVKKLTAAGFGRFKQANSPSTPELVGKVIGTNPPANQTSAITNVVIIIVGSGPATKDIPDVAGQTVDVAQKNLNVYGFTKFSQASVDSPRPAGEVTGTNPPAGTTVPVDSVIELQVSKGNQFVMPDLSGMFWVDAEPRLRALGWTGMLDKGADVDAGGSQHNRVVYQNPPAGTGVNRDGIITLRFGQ
# Serine/threonine-protein kinase WNK3 (Homo sapiens), sequence (Q9BYP7 whole entry): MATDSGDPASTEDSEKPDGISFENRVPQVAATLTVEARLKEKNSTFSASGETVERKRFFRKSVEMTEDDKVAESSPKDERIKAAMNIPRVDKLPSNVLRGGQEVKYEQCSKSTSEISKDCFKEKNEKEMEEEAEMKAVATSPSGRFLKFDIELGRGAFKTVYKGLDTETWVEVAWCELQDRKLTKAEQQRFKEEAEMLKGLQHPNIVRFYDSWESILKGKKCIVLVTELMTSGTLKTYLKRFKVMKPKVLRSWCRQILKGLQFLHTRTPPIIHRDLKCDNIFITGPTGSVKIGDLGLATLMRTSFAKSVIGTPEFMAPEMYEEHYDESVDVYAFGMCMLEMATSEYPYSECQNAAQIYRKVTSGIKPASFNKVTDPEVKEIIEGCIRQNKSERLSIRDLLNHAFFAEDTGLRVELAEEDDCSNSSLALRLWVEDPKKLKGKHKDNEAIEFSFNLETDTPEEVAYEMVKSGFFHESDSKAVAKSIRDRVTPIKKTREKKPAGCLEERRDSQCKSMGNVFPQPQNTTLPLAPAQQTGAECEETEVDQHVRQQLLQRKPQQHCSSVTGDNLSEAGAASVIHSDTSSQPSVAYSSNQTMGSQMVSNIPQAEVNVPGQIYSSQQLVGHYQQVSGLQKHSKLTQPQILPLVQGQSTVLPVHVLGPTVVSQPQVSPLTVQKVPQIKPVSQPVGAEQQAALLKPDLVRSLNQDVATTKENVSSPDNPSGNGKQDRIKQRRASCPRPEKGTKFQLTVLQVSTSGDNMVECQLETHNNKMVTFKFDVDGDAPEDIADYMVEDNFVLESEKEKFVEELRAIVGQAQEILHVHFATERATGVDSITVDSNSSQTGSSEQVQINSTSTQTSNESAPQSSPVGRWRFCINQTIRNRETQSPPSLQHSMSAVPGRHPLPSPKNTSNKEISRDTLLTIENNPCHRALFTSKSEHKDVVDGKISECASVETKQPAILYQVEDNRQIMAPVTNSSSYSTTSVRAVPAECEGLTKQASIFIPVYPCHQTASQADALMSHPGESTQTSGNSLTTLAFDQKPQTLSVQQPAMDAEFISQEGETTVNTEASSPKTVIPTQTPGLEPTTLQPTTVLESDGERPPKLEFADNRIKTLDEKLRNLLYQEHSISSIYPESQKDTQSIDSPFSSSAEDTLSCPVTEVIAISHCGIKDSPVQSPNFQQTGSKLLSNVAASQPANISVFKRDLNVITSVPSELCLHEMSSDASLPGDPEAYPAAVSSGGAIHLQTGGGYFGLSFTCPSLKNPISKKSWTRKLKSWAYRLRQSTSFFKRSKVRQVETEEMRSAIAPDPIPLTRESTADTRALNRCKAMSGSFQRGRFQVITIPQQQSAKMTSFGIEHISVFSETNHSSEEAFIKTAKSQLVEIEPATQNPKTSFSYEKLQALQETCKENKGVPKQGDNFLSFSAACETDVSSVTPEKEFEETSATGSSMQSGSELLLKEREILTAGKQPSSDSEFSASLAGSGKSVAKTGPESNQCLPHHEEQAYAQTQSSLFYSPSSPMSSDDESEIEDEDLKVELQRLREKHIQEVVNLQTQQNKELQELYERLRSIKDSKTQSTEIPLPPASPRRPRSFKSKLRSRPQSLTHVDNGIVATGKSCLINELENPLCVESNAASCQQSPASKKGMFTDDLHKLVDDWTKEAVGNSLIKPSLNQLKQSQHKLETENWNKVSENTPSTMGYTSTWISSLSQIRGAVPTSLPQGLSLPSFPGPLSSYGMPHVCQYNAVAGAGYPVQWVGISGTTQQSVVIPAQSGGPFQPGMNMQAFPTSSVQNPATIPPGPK
# Serine/threonine-protein kinase N1 (Homo sapiens), sequence (Q16512 2-942 limits assumed): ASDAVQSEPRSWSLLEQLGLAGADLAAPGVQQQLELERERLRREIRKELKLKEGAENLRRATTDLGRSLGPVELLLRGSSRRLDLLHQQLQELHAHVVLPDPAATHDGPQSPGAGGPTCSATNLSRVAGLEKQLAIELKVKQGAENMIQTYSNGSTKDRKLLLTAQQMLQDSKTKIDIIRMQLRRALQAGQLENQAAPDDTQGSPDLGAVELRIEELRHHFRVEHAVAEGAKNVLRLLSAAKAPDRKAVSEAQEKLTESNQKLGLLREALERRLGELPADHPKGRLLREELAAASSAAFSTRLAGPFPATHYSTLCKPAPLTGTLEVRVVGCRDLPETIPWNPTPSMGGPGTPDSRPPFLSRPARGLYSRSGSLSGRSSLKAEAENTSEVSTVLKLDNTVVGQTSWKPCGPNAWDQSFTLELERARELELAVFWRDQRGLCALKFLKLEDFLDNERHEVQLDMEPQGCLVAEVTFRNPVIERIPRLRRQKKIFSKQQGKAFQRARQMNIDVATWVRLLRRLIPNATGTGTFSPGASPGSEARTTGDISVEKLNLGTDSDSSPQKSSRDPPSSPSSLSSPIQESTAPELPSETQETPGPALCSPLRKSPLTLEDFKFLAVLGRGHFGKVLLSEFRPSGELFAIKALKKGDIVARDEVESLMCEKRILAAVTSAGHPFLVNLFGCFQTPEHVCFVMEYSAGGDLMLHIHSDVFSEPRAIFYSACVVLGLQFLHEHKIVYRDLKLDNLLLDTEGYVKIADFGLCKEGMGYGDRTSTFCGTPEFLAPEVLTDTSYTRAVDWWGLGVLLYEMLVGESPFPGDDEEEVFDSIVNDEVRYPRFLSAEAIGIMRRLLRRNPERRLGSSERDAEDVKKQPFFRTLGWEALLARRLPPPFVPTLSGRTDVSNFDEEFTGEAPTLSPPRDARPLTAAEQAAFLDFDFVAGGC
# NUAK family SNF1-like kinase 1 (Homo sapiens), sequence (O60285 whole entry, the tested form may be a part): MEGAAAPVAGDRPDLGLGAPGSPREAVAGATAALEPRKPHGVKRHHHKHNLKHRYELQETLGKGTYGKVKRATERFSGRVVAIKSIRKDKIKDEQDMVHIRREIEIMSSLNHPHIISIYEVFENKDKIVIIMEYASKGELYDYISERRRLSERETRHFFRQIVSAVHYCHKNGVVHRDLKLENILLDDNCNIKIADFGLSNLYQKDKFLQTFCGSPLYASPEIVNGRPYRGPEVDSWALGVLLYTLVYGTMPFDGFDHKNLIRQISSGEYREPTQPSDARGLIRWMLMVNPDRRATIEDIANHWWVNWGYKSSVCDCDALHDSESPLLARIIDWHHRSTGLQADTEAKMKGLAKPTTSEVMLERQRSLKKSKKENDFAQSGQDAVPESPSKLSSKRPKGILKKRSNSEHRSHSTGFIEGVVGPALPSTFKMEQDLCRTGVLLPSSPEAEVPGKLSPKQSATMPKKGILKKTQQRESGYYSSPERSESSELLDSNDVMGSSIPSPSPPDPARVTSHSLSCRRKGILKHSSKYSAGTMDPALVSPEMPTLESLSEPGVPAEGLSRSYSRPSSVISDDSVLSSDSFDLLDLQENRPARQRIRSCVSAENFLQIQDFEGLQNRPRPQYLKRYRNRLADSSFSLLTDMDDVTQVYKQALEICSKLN
# LIM domain kinase 2 (Homo sapiens), sequence (P53671 whole entry, looked up, the tested form may be a part): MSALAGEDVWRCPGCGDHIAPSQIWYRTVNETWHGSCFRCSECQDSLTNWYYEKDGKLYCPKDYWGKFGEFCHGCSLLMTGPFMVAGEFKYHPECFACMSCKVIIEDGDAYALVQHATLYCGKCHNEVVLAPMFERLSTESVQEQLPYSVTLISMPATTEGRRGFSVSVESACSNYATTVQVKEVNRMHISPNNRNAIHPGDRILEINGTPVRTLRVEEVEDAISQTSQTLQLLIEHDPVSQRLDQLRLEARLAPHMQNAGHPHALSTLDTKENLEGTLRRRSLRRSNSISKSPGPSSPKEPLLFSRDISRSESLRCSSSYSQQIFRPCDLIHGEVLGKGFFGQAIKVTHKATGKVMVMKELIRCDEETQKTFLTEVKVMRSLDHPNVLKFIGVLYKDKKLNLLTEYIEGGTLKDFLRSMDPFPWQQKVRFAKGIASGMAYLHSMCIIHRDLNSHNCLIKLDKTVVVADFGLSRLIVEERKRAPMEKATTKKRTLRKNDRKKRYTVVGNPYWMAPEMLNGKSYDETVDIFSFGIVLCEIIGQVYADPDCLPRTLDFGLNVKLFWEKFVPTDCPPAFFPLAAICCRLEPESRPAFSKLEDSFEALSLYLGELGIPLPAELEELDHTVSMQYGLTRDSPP
# Serine/threonine-protein kinase pim-2 (Homo sapiens), sequence (Q9P1W9 whole entry, looked up): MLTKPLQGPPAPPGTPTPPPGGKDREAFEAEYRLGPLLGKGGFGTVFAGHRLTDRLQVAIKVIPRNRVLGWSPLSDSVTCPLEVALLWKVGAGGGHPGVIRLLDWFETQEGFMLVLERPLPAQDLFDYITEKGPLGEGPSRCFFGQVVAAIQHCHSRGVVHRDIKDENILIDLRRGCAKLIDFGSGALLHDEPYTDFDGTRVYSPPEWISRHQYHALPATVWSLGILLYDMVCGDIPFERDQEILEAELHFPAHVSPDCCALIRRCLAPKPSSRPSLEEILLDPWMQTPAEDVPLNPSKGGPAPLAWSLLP
Compound,residual activity [1] [%],residual activity [2] [%],inhibition [3] [%],residual activity [4] [%],residual activity [5] [%],residual activity [6] [%],inhibition [7] [%],residual activity [8] [%],residual activity [9] [%],residual activity [10] [%],residual activity [11] [%],residual activity [12] [%],residual activity [13] [%],residual activity [14] [%],residual activity [15] [%],residual activity [16] [%],residual activity [17] [%],residual activity [18] [%],residual activity [19] [%],residual activity [20] [%],other results
Cn1nc(C(=O)NCc2ccc(C(=O)O)cc2)cc1-c1ccc2[nH]ccc2c1 [BI 4395],90,78,23.6,43,81,78,-2.75,45,100,94,76,83,100,91,48,100,86,70,100,99,residual activity [21]: 89%; residual activity [22]: 100%; residual activity [23]: 96%; residual activity [24]: 100%; residual activity [25]: 87%; residual activity [26]: 90%; inhibition [27]: 8.74%; residual activity [28]: 71%; residual activity [29]: 67%; residual activity [30]: 92%; residual activity [31]: 61%; residual activity [32]: 100%; residual activity [33]: 100%
CCOC(=O)c1cc2cc(-c3cc(C(=O)NCc4ccc(C(=O)O)cc4)nn3C)ccc2[nH]1 [BI 4394],91,93,19.1,97,96,93,8.13,99,81,100,100,87,100,96,100,100,100,100,96,100,residual activity [21]: 94%; residual activity [22]: 93%; residual activity [23]: 73%; residual activity [24]: 90%; residual activity [25]: 100%; residual activity [26]: 100%; inhibition [27]: 9.64%; residual activity [28]: 91%; residual activity [29]: 96%; residual activity [30]: 95%; residual activity [31]: 100%; residual activity [32]: 93%; residual activity [33]: 100%

# Source: ChEMBL document CHEMBL4507281, “Data for DCP probe BI-4394” (2021)
